From US10111902B2, “Polymers for reversing heparin-based anticoagulation” (University of British Columbia, priority 2011, dated 2018) come the findings set out here.

Entries after “also recorded” stand apart in the source; their conditions may differ.

Data set [1] relates to UFH. Nature of the data set: Anti Xa neutralization of UFH in platelet poor plasma. The format is biochemical, human. The note with it: One IU UFH per ml in platelet poor plasma. On the procedure: (§1) Both JNK-1 and JNK-2 result in greater neutralization of unfractionated heparin at two doses (50 and 100 μg/ml), Tinzaparin (LMWH) and Enoxaparin (LMWH).
The subject of a further data set is Tinzaparin. Nature of the data set: Anti Xa neutralization of Tinzaparin in platelet poor plasma. The format is biochemical, human. As to conditions: One IU LMWH per ml in platelet poor plasma. The procedure:
as §1

For data set [2], the system named is unfractionated heparin (UFH). Nature of the data set: APTT assay, neutralization of UFH in citrate plasma. In kind it is biochemical, human. On the procedure:
In one example, a heparin binding synthetic polyvalent cationic macromolecule JNK-1 can neutralize UFH in human blood under in vitro conditions (FIGS. 4A and 4B). Citrate plasma was anti-coagulated with 1.0 U/ml UFH (UFH control) and was titrated with different concentrations of JNK-1 polymers (0.009 to 8.69 nanomoles/ml) and protamine (0.2 to 222.2 nanomoles/ml).
(§2) Citrate plasma was anticoagulated with 2.0 U/ml UFH, Enoxaparin and Tinzaparin and was treated with different concentrations of the HBSPCM polymers and protamine (0.001 to 0.25 mg/ml). The APTT was measured for each sample.
(§3) Citrate plasma was anticoagulated with UFH (2.0 IU/mL), Enoxaparin (2.0 IU/mL) and Tinzaparin (1.14 IU/mL) and was titrated with different concentrations of the HBSPCM polymers and protamine (0.001 to 0.25 mg/ml). The APTT was measured for each sample.
(§4) Ability of HBSPCM polymers JNK-9, JNK-10 and JNK-11 was studied for the range of concentration from 0.01 to 0.25 mg/mL prepared in 0.15 M saline. Citrated blood was spun at 3000 RPM for 10 min to obtain platelet poor plasma (PPP). The PPP was then heparinized by adding 45 μL of heparin (UFH, LMWH etc.) to 2200 μL of PPP final concentration of 2.0 IU/mL for UFH and Tinzaparin and 1.14 IU/mL for Enoxaparin. Normal control was prepared by adding 25 μL of 0.15 M saline to 250 μL of PPP. 25 μL of each antidote solution (polymer or protamine) was added to 225 μL of heparinized PPP. 250 μL of APTT reagent (actin FSL) was then added and samples were incubated for 3 min at 37° C. 250 μL of normal control was combined with 250 μL of APTT reagent and also incubated for 3 min. 50 μL of 0.025M CaCl2 was added to 100 μL aliquots of normal control and sample (in triplicate). A heparinized control containing 225 μL of PPP and 25 μL of saline was also prepared and run similar to normal control.

A further data set concerns LMWH Enoxaparin. Nature of the data set: APTT assay, neutralization of LMWH Enoxaparin in citrate plasma. In kind it is biochemical, human. As to conditions: Enoxaparin 2.0 U/ml or 1.14 IU/mL, 0.001 to 0.25 mg/ml. The procedure:
as §2, §3
as §4, with “A heparinized control containing 225 μL of PPP and 25 μL of saline was also prepared and run similar to normal control.” left out

The test system of data set [3] is UFH. Nature of the data set: Thromboelastography (TEG), neutralization of UFH in whole blood. As to conditions: human whole blood, UFH 0.5 U/ml, re-calcified at 37° C. The format is cell-based. The procedure:
This example examines thromboelastography in the presence of various heparin binders. Thromboelastography (TEG) provides an in vitro method for monitoring of the evolution of the viscoelastic properties and coagulation kinetics of blood as clotting proceeds. The principle components of the TEG are a cylindrical cup and a bob suspended in the cup from a weak torsion wire. The warmed cup oscillates over a 10 second period through an angle of 4° 45′. Blood is added and a torque is transmitted to the bob as the gel forms. The rate of clot formation, the strength of the clot, and the rate of clot lysis are reflected in the shape traced out by the maxima in the bob oscillation as a function of time (the trace of the TEG). […]
(§5) To carry out TEG experiments, citrate anti-coagulated whole blood with heparin or heparin derivatives added are incubated with buffered HBSPCM polymers (sodium citrate or saline) for 1 minute before recalcification at 37° C. Clot formation kinetics are monitored in a TEG machine (350 μl whole blood+35 μl polymer or control solution) at 37° C.
The coagulation time (FIG. 7A) and maximum clot strength, or maximum amplitude (MA) (FIG. 7B) are shown. Citrated whole blood was added to UFH or Tinzaparin (0.5 U/ml) and re-calcified at 37° C. in a TEG cup and monitored using a TEG machine. […]

The next data set relates to LMWH Tinzaparin. Nature of the data set: Thromboelastography (TEG), neutralization of LMWH Tinzaparin in whole blood. The format is cell-based. As to conditions: human whole blood; for clot strength (maximum amplitude, MA) with Tinzaparin: antidote at higher concentration (0.25 mg/ml). On the procedure: (§6) This example examines thromboelastography in the presence of various heparin binders. Thromboelastography (TEG) provides an in vitro method for monitoring of the evolution of the viscoelastic properties and coagulation kinetics of blood as clotting proceeds. The principle components of the TEG are a cylindrical cup and a bob suspended in the cup from a weak torsion wire. The warmed cup oscillates over a 10 second period through an angle of 4° 45′. Blood is added and a torque is transmitted to the bob as the gel forms. The rate of clot formation, the strength of the clot, and the rate of clot lysis are reflected in the shape traced out by the maxima in the bob oscillation as a function of time (the trace of the TEG). The clot's physical properties, i.e. rate of clot formation, clot strength, and stability are dependent on the interaction of fibrinogen, platelets, and plasma proteins. TEG studies yield the cumulative effect of several components of coagulation (global homeostasis) as a function of time.
as §5
The coagulation time (FIG. 7A) and maximum clot strength, or maximum amplitude (MA) (FIG. 7B) are shown. Citrated whole blood was added to UFH or Tinzaparin (0.5 U/ml) and re-calcified at 37° C. in a TEG cup and monitored using a TEG machine. JNK-1 polymers or protamine at different concentrations were used as neutralizing agents.

For another data set, the system named is Enoxaparin. Nature of the data set: Thromboelastography (TEG), neutralization of Enoxaparin in whole blood. In kind it is cell-based. The note with it: human whole blood; JNK-5 and JNK-6 at 0.1 mg/ml. On the procedure:
as §6
(§7) To carry out TEG experiments, citrate anti-coagulated whole blood with heparin or heparin derivatives added are incubated with buffered HBSPCM polymers (sodium citrate or saline) for 1 minute before recalcification at 37° C. Clot formation kinetics are monitored in a TEG machine (350 μl whole blood+35 μl polymer or control solution) at 37° C. […]

The test system of data set [4] is blood coagulation. Nature of the data set: Blood coagulation: PT and APTT in platelet poor plasma. The format is biochemical, human. The note with it: FIG. 15, compared to saline. On the procedure: The present example examines blood coagulation in the presence of a heparin binding polymer. JNK-1 polymers were tested for blood compatibility using the activated partial thromboplastin time (APTT) and the prothrombin time (PT) in fresh human plasma. PT can be used to evaluate the extrinsic and common coagulation pathway and the results are expressed in seconds required for a fibrin clot to form after tissue thromboplastin (innovin) has been added to the blood sample. APTT is used to evaluate the intrinsic and common coagulation pathway. The results are expressed in seconds required for a fibrin clot to form in the plasma sample after a partial thromboplastin reagent (actin) and calcium chloride have been added to the sample. Blood was mixed with a measured amount of citrate and the plasma was obtained by centrifugation, using methods known in the art.
A final JNK-1 concentration of 10 mg/ml is used at in a 9:1 dilution of plasma at 37° C. Control experiments were done adding identical volumes of saline solution. JNK-1 polymer solutions were incubated with platelet poor plasma for 5 minutes at 37° C. before adding PT and APTT reagents.
Blood coagulation is measured using APTT.

The subject of data set [5] is blood coagulation. Nature of the data set: Blood compatibility by thromboelastograph (TEG). As to conditions: polymer concentration 0.5 mg/ml. In kind it is cell-based. The procedure:
as §6, §7

On to protamine, for which, in the data set on UFH [1] (50 μg/ml), the “Anti Xa Neutralization (%) of UFH at 50 μg/ml” value came out at 84%. The “Anti Xa Neutralization (%) of UFH at 100 μg/ml” value with UFH [1] (100 μg/ml) is recorded as 85 ± 0%. For the same substance, the “Anti Xa Neutralization (%) of Tinzaparin at 100 μg/ml” value in the data set with Tinzaparin was determined as 77 ± 1%. The “UFH neutralization (APTT)” value in data set [2] (citrate plasma, UFH 2.0 U/ml, polymers and protamine 0.001 to 0.25 mg/ml) is “neutralizes UFH and LMWH only in the narrow concentration range”; in data set [2] (human citrate plasma anti-coagulated with UFH (1.0 U/ml), titrated with JNK-1 0.009 to 8.69 or protamine 0.2 to 222.2 nanomoles/ml), “complete neutralization occurred at a higher dosage of protamine; also recorded: acted with less efficiency for UFH within a smaller dose window”. The “anticoagulant effect at higher concentration (APTT)” value in data set [2] (heparinized citrate plasma, 0.001 to 0.25 mg/ml) is recorded as “possesses anticoagulant activity”. Further, the “anticoagulant effect at high concentration (APTT)” value in data set [2] (heparinized human citrate plasma, high doses of antidote) was “had an anticoagulant effect”. For the same substance, the “LMWH Enoxaparin neutralization (APTT)” value in the data set on LMWH Enoxaparin was “neutralizes UFH and LMWH only in the narrow concentration range”. Further, the “UFH neutralization (TEG: coagulation time, clot strength)” value in the data set on UFH [3] is “not effective at neutralizing UFH or LMWH Tinzaparin and Enoxaparin in terms of the time to clot formation”. In the data set with LMWH Tinzaparin (Tinzaparin 0.5 U/ml, re-calcified at 37° C), the “LMWH Tinzaparin neutralization (TEG: coagulation time, clot strength)” value was “not effective at neutralizing UFH or LMWH Tinzaparin and Enoxaparin in terms of the time to clot formation”. The “clot strength (maximum amplitude, MA) with Tinzaparin” value in the data set on LMWH Tinzaparin is reported as “did not form a stable clot”; in the data set on LMWH Tinzaparin (listed as protamine), “not at all at a high dose”. Besides, the “Enoxaparin neutralization (TEG)” value in the data set on Enoxaparin was “not effective at neutralizing UFH or LMWH Tinzaparin and Enoxaparin in terms of the time to clot formation”. Besides, the “blood coagulation (APTT biocompatibility)” value in the data set with blood coagulation [4] was “different blood coagulation profile”. The “coagulation time (R) and kinetics parameter (K), TEG” value with blood coagulation [5] was “different blood coagulation profile”.
